From publication PMC9046087, “Structural basis of tethered agonism of the adhesion GPCRs ADGRD1 and ADGRF1” (Nature, 2022)
Where two headings read alike, the source gives them in different places. Ends that are not written are not given here.

Columns and labels:
Experiment in all cases: BRET assay using TRUPATH biosensors, Gi activation of ADGRF1
Format in all cases: cell-based
ADGRF1 [1] = target: T1, ADGRF1 (Homo sapiens, UniProt Q5T601)
T1 construct: Flag (N); expressed in transfected cells; host or cells: HEK293F
T1 sequence (Q5T601 20-910): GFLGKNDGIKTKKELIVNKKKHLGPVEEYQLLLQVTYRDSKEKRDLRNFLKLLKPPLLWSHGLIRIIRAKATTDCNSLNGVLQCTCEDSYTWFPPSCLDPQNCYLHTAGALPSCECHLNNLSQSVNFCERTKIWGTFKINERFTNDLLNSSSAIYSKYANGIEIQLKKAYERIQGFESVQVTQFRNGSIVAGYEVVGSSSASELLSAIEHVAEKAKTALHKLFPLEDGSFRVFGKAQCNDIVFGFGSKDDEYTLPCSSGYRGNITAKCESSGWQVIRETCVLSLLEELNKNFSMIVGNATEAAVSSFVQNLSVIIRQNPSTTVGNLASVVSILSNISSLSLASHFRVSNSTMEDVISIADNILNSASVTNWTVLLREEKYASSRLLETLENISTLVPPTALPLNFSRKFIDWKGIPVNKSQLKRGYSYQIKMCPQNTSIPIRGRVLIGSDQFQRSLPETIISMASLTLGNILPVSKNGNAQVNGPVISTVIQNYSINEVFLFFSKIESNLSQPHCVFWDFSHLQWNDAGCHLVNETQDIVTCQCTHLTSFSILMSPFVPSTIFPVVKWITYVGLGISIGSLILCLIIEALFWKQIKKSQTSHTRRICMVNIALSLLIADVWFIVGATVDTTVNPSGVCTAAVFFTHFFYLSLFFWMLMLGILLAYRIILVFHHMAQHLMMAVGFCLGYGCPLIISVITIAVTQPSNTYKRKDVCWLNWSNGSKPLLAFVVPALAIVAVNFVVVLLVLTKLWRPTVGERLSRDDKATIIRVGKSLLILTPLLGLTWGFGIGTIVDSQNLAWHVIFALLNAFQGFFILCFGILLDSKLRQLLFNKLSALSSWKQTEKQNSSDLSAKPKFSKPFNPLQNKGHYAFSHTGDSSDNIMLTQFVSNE
Method: (§1) To study the synthetic stalk peptide-induced G protein activation of ADGRD1 and ADGRF1, a BRET assay using TRUPATH biosensors was conducted to measure the proximal interaction between RLuc8 fused to the Gα subunit and GFP2 fused to the Gγ subunit. The TRUPATH suite of biosensors was obtained from Addgene (Addgene kit no. 1000000163) as a gift from B. Roth, including GαsS-RLuc8, Gαi1-RLuc8, Gβ3 and Gγ9-GFP2 as previously described.
(§2) The wild-type or mutant ADGRD1 and ADGRF1 were transiently co-transfected with plasmids encoding Gα-RLuc8 (GαsS-RLuc8 for Gs activation assay; Gαi1-RLuc8 for Gi activation assay), Gβ3 and Gγ9-GFP2 at a ratio of 2:1:1:1 (receptor plasmid, 800 ng; G protein subunit plasmids, 400 ng for each) in 2 ml HEK293F cells at a density of 1.2 × 10^6 cells per ml. Cell cultivation and receptor surface expression measurement were performed as described above. The cells were plated into 96-well white plates (40,000 cells per well) in 60 μl of assay buffer and incubated at 37 °C for 30 min. Then 10 μl of freshly prepared 50 μM coelenterazine 400a (Nanolight Technologies) was added. […] The cells were stimulated with 30 μl of synthetic stalk peptide at different concentrations and the BRET signals were monitored continuously five times. The last measurements were used in data analysis. The BRET ratios were calculated as the ratio of the GFP2 emission to RLuc8 emission.

ADGRF1 [2] = target: T2, ADGRF1 (Homo sapiens, UniProt Q5T601, G801A); settings: ADGRF1 G801^6.50bA
T2 construct: Flag (N); expressed in transfected cells; host or cells: HEK293F
T2 sequence (Q5T601 20-910 G801A): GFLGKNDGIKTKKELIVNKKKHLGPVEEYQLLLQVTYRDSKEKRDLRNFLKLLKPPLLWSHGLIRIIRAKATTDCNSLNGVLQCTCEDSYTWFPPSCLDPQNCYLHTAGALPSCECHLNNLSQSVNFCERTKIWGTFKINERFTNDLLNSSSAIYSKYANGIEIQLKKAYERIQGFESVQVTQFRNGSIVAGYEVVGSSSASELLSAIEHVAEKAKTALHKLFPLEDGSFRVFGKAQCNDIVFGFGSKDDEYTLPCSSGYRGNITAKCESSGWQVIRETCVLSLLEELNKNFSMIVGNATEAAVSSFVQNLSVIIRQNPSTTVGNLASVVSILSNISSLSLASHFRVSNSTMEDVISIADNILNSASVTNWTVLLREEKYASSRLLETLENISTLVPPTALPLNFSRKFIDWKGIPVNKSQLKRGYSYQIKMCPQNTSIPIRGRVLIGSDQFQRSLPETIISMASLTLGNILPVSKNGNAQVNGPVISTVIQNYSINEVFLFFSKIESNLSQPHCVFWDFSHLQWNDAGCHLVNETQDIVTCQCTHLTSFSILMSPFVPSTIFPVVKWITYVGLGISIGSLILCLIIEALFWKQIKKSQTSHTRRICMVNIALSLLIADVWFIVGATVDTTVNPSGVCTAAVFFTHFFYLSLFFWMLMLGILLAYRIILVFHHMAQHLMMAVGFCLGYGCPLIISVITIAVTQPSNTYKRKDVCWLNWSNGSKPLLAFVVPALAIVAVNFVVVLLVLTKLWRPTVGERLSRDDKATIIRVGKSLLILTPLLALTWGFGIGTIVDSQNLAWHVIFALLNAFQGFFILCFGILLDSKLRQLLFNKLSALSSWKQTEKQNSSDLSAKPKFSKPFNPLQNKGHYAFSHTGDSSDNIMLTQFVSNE
Method: as §1, §2

ADGRF1 [3] = target: T3, ADGRF1 (Homo sapiens, UniProt Q5T601, G807W); settings: ADGRF1 G807^6.56bW, n = 3
T3 construct: Flag (N); expressed in transfected cells; host or cells: HEK293F
T3 sequence (Q5T601 20-910 G807W): as the sequence (Q5T601 20-910 G801A) above, with A782G, G788W counted along it
Method: as §1, §2

ADGRF1 [4] = target: T4, ADGRF1 (Homo sapiens, UniProt Q5T601, L593A); settings: ADGRF1 L593^1.47bA
T4 construct: Flag (N); expressed in transfected cells; host or cells: HEK293F
T4 sequence (Q5T601 20-910 L593A): as the sequence (Q5T601 20-910 G801A) above, with L574A, A782G counted along it
Method: as §1, §2

ADGRF1 [5] = target: T5, ADGRF1 (Homo sapiens, UniProt Q5T601, L681H); settings: ADGRF1 L681^3.53bH
T5 construct: Flag (N); expressed in transfected cells; host or cells: HEK293F
T5 sequence (Q5T601 20-910 L681H): as the sequence (Q5T601 20-910 G801A) above, with L662H, A782G counted along it
Method: as §1, §2

ADGRF1 [6] = target: T6, ADGRF1 (Homo sapiens, UniProt Q5T601, L682A); settings: ADGRF1 L682^3.54bA
T6 construct: Flag (N); expressed in transfected cells; host or cells: HEK293F
T6 sequence (Q5T601 20-910 L682A): as the sequence (Q5T601 20-910 G801A) above, with L663A, A782G counted along it
Method: as §1, §2

ADGRF1 [7] = target: T7, ADGRF1 (Homo sapiens, UniProt Q5T601, N827A); settings: ADGRF1 N827^7.46bA
T7 construct: Flag (N); expressed in transfected cells; host or cells: HEK293F
T7 sequence (Q5T601 20-910 N827A): as the sequence (Q5T601 20-910 G801A) above, with A782G, N808A counted along it
Method: as §1, §2

ADGRF1 [8] = target: T8, ADGRF1 (Homo sapiens, UniProt Q5T601, P798A); settings: ADGRF1 P798^6.47bA
T8 construct: Flag (N); expressed in transfected cells; host or cells: HEK293F
T8 sequence (Q5T601 20-910 P798A): as the sequence (Q5T601 20-910 G801A) above, with P779A, A782G counted along it
Method: as §1, §2

ADGRF1 [9] = target: T9, ADGRF1 (Homo sapiens, UniProt Q5T601, T589A); settings: ADGRF1 T589^1.40bA
T9 construct: Flag (N); expressed in transfected cells; host or cells: HEK293F
T9 sequence (Q5T601 20-910 T589A): as the sequence (Q5T601 20-910 G801A) above, with T570A, A782G counted along it
Method: as §1, §2

ADGRF1 [10] = target: T10, ADGRF1 (Homo sapiens, UniProt Q5T601, V748A); settings: ADGRF1 V748^5.40bA
T10 construct: Flag (N); expressed in transfected cells; host or cells: HEK293F
T10 sequence (Q5T601 20-910 V748A): as the sequence (Q5T601 20-910 G801A) above, with V729A, A782G counted along it
Method: as §1, §2

ADGRF1 [11] = target: T11, ADGRF1 (Homo sapiens, UniProt Q5T601, V761A); settings: ADGRF1 V761^5.53bA, n = 3
T11 construct: Flag (N); expressed in transfected cells; host or cells: HEK293F
T11 sequence (Q5T601 20-910 V761A): as the sequence (Q5T601 20-910 G801A) above, with V742A, A782G counted along it
Method: as §1, §2

ADGRF1 [12] = target: T12, ADGRF1 (Homo sapiens, UniProt Q5T601, V765A); settings: ADGRF1 V765^5.57bA
T12 construct: Flag (N); expressed in transfected cells; host or cells: HEK293F
T12 sequence (Q5T601 20-910 V765A): as the sequence (Q5T601 20-910 G801A) above, with V746A, A782G counted along it
Method: as §1, §2

ADGRF1 [13] = target: T13, ADGRF1 (Homo sapiens, UniProt Q5T601, W804A); settings: ADGRF1 W804^6.53bA
T13 construct: Flag (N); expressed in transfected cells; host or cells: HEK293F
T13 sequence (Q5T601 20-910 W804A): as the sequence (Q5T601 20-910 G801A) above, with A782G, W785A counted along it
Method: as §1, §2

[14] = n = 3, read-out: pEC50 (mean ± s.e.m.) (converted)
[15] = n = 4, read-out: pEC50 (mean ± s.e.m.) (converted)

TSFSILMSPFVP [pF1]
Emax (mean ± s.e.m.) (ADGRF1 [1]; ADGRF1 Construct 1 (structure construct), n = 4): 90 ± 13 % of WT | EC50 (ADGRF1 [1]; ADGRF1 Construct 1 (structure construct), n = 4, read-out: pEC50 (mean ± s.e.m.) (converted)): 100 nM | Emax (mean ± s.e.m.) (ADGRF1 [1]; ADGRF1 WT, n = 30): 100 ± 3 % of WT | EC50 (ADGRF1 [1]; ADGRF1 WT, n = 30, read-out: pEC50 (mean ± s.e.m.) (converted)): 61.7 nM | Emax (mean ± s.e.m.) (ADGRF1 [2]; n = 3): 127 ± 13 % of WT | EC50 (ADGRF1 [2]; [14]): 347 nM | EC50 (ADGRF1 [3]): 1520 nM | Emax (mean ± s.e.m.) (ADGRF1 [3]): 101 ± 13 % of WT | Emax (mean ± s.e.m.) (ADGRF1 [4]; n = 3): 106 ± 11 % of WT | EC50 (ADGRF1 [4]; [14]): 562 nM | Emax (mean ± s.e.m.) (ADGRF1 [5]; n = 4): 103 ± 13 % of WT | EC50 (ADGRF1 [5]; [15]): 347 nM | Emax (mean ± s.e.m.) (ADGRF1 [6]; n = 3): 79 ± 12 % of WT | EC50 (ADGRF1 [6]; [14]): 269 nM | Emax (mean ± s.e.m.) (ADGRF1 [7]; n = 3): 122 ± 13 % of WT | EC50 (ADGRF1 [7]; [14]): 389 nM | Emax (mean ± s.e.m.) (ADGRF1 [8]; n = 3): 94 ± 17 % of WT | EC50 (ADGRF1 [8]; [14]): 912 nM | Emax (mean ± s.e.m.) (ADGRF1 [9]; n = 3): 114 ± 13 % of WT | EC50 (ADGRF1 [9]; [14]): 87.1 nM | Emax (mean ± s.e.m.) (ADGRF1 [10]; n = 3): 85 ± 17 % of WT | EC50 (ADGRF1 [10]; [14]): 56.2 nM | EC50 (ADGRF1 [11]): 1620 nM | Emax (mean ± s.e.m.) (ADGRF1 [11]): 124 ± 22 % of WT | Emax (mean ± s.e.m.) (ADGRF1 [12]; n = 3): 92 ± 16 % of WT | EC50 (ADGRF1 [12]; [14]): 912 nM | Emax (mean ± s.e.m.) (ADGRF1 [13]; n = 4): 86 ± 19 % of WT | EC50 (ADGRF1 [13]; [15]): 977 nM
